Measured values: US20200046869A1, “USE OF ZINC TREATED PRECIPITATED CALCIUM CARBONATE IN HYGIENIC PRODUCTS” (Omya International AG, priority 2017, published 2020)

Assays:
Fungi = assay: Plate count of fungal growth in zinc containing powders; type: cell-based; conditions: powder in disruption buffer, Sabouraud-Glucose agar, 7 days at 25° C.; detection limit 10 cfu/g
Method: The microbial contamination (bacterial and fungi growth) of three different zinc containing powder samples was determined by the plate count method (spread count) according to the following procedure: 1 g of the respective powder and 9 ml sterile disruption buffer (DB) were weighed into a sterile 50 ml test tube (Greiner) under aseptic conditions using an autoclaved disposable spatula (VWR) in order to obtain suspensions of the zinc containing powder samples. To detach the microorganisms from the zinc containing powders samples, the suspensions were shaken on a vortex for 60 sec. at 2500 rpm before being put on a shaker for 30 minutes at motor setting 1400 (at room temperature, i.e. 21° C.). The sample to be analyzed was appropriately diluted and a defined volume no greater than 0.1 ml was spread over the surface of an agar plate using a sterile glass/plastic spreader. The agar plates were then incubated upside down (condensed water) for a defined period of time at a defined temperature. The sample to be analyzed was diluted 1:10 in PBS and 100 μl of the dilution were spread onto the plate which was incubated for 7 days at 25° C. The plates were evaluated by counting the grown colonies, thereby taking into account that only plates containing between 30-300 colonies have a high statistical significance. […]

[1] = system: Aerobe bacteria (TSA plates); assay: Plate count of aerobe total viable count in zinc containing powders; type: cell-based; conditions: powder in disruption buffer, 48 hours at 30° C., detection limit 100 cfu/g
Method: The microbial contamination (bacterial and fungi growth) of three different zinc containing powder samples was determined by the plate count method (spread count) according to the following procedure: 1 g of the respective powder and 9 ml sterile disruption buffer (DB) were weighed into a sterile 50 ml test tube (Greiner) under aseptic conditions using an autoclaved disposable spatula (VWR) in order to obtain suspensions of the zinc containing powder samples. To detach the microorganisms from the zinc containing powders samples, the suspensions were shaken on a vortex for 60 sec. at 2500 rpm before being put on a shaker for 30 minutes at motor setting 1400 (at room temperature, i.e. 21° C.). The sample to be analyzed was appropriately diluted and a defined volume no greater than 0.1 ml was spread over the surface of an agar plate using a sterile glass/plastic spreader. The agar plates were then incubated upside down (condensed water) for a defined period of time at a defined temperature. The sample to be analyzed was diluted 1:10 in PBS and 100 μl of the dilution was spread onto the TSA plate which was incubated for 48 hours at 30° C. The plates were evaluated by counting the grown colonies, thereby taking into account that only plates containing between 30-300 colonies have a high statistical significance. […]

| Compound | TVC Fungi (Fungi) | TVC Aerobe [1] |
| --- | --- | --- |
| [O]=[Zn] [ZnO] | <10 cfu/g | <100 cfu/g |
| O=C([O-])[O-].[Zn+2] [ZnCaCO3, ZnCO3] | <10 cfu/g | <100 cfu/g |
